Data as given in patent US9844599B2, “Nitric oxide releasing produgs of therapeutic agents” (priority 2013, dated 2017).

How the values were obtained:
[1] = system: serum thromboxane B2 (TXB2) formation; assay: Inhibition of serum thromboxane B2 (TXB2) formation; assay type: in vivo, Sprague-Dawley (SD) rats; conditions: SD rats, 30 mg/kg aspirin or equimolar 44.82 mg/kg, p.o., o.d., 7 days
Description: Aspirin is used as an antiplatelet agent for the treatment of cardiovascular complications. […] It is therefore possible to achieve complete suppression of platelet. TXA2 (and also TXB2) formation via chronic administration of aspirin at a dose of 30 mg/daily (Patrignani, P., et al. J. Clin. Invest. 1982, 69, 1366-1372). The antiplatelet activity of aspirin (30 mg/kg) and its prodrug I-D1-R1 (at a dose equimolar to 30 mg/kg dose of aspirin) was evaluated in Sprague-Dawley (SD) rats through estimation of serum TXB2 levels (Esser, R. et al., Br. J. Pharmacol. 2006, 144, 538-550) and the experimental results are presented in FIG. 7.
In vivo TXB2 inhibition potential of aspirin and NO-aspirin prodrugs was assessed in Sprague-Dawley (SD) rats; the serum TXB2 levels were estimated according to the reported procedure (R. Esser, R., et al., Br. J. Pharmacol. 2006, 144, 538-550). Thus, vehicle, aspirin (30 mg/kg) or aspirin prodrug I-D1-R1 (44.82 mg/kg which is equivalent to 30 mg/kg dose of aspirin) were administered orally to the overnight fasted SD rats. […] The serum TXB2 concentrations were determined by enzyme immunoassay (EIA) using commercially available TXB2 estimation kit (Cayman Chemicals, USA), according to the method described in kit information booklet.

[2] = Acute gastric ulcerogenesis activity study; conditions: rats, acute oral; aspirin 100 mg/kg, I-D1-R1 298.85 mg/kg, naproxen 100 mg/kg, I-D2-R1 138.67 mg/kg
Description: The animals were sacrificed after 5 h of drug administration. The stomachs of the treated animals were separated, perfused with 2% formalin (10 mL), and a large curvature was excised. The severity of the mucosal damage was assessed on the basis of the size of the observed ulcer lesions in the images captured using a stereomicroscope attached to a digital camera (Stemi 2000, Zeiss, Germany). The Image Pro Plus software (version 5.1) was used to quantify the hemorrhagic/ulcer lesions in pixels and to convert them into mm^2. The total area of lesions was calculated for each treatment group and the measure of gastric ulcers (Mean±SEM) (mm^2) was estimated (FIGS. 5 and 6).

[3] = Stability of prodrugs at RT and at 50° C. (capped vials); assay type: physicochemical
[4] = Stability / release of aspirin in Simulated Intestinal Fluid (SIF); assay type: in vitro ADME; conditions: 1 mM concentration
Description: SIF was prepared according to the procedure described in Test Solution—USP. Thus, 0.68 g of monobasic potassium phosphate was dissolved in 25 mL of water followed by addition of 0.2N NaOH (7.7 mL) and water (50 mL). To this solution was added pancreatin (1 g) and mixed; the pH of the resulting solution was adjusted to about 6.8 with 0.2N HCl/0.2N NaOH and the solution, was diluted with water to 100 mL. The solution was utilized for in-vitro studies.
(§1) The solution of the test compound in acetonitrile (10 μL of […] solution) was dissolved in 990 μL of biological fluid (SGF/SIF/Human Plasma). The resulting reaction mixtures were incubated at 37° C. At specified time intervals, aliquots (60 μL) were withdrawn and added to acetonitrile (200 μL) and mixed well by vortexing for 2 minutes. The mixture was centrifuged at 13000 rpm for 15 min at 4° C., and the supernatant analyzed by HPLC. The amounts (area percentages) of the remaining intact prodrug (if any) and the released metabolite(s) were estimated by HPLC.
This was performed by using HPLC instrument (Waters alliance), pump 2695, and PDA detector 2996 with the following chromatographic parameters: Wavelength −210 nm; Column-Waters X-Terra RP-18, 150×3.9 mm, 5 μm; Injection volume, 25 μL; Run time, 13 min. Mode of operation was linear gradient with mobile phase A: Acetonitrile and B: 0.1% TFA in water (filtered and degassed). […]

[5] = Stability / release of aspirin and salicylic acid in human plasma; assay type: in vitro ADME; conditions: 100 μM, FIG. 11
Description: Human plasma was similarly obtained by processing the blood taken from healthy human male volunteers (age group 25-35 years) who had not consumed any NSAIDS one week prior to the collection of blood. This plasma was utilized for the in-vitro experiments.
as §1
(§2) This was performed by using HPLC instrument (Waters alliance), pump 2695, and PDA detector 2996 with the following chromatographic parameters: Wavelength −210 nm; Column-Waters X-Terra RP-18, 150×3.9 mm, 5 μm; Injection volume, 25 μL; Run time, 13 min. Mode of operation was linear gradient with mobile phase A: Acetonitrile and B: 0.1% TFA in water (filtered and degassed). Flow rate was 1.0 mL/min at 25° C.

[6] = Stability of prodrugs / release of parent drug in Simulated Gastric Fluid (SGF); assay type: in vitro ADME; conditions: for % of Prodrug remaining (μM): simulated gi fluid
Description: SGF was prepared according to the procedure described in Test Solution—USP. Thus, 0.2 g of sodium chloride and 0.32 g of purified pepsin (Sigma, derived from porcine stomach mucosa with an activity of 800 to 2500 units per mg of protein) were dissolved in 0.7 mL of hydrochloric acid and sufficient water to make 100 mL. This test solution has a pH of about 1.2 and was utilized for in-vitro studies.
as §1, §2

With `CC(=O)Oc1ccccc1C(=O)OC(C)O[N+](=O)[O-]` (stereo not drawn) [I-D1-R1, 1-(nitrooxy)ethyl 2-acetoxybenzoate] the “Inhibition of TXB2 formation” value [1] was 72.59%, the “Development of gastric ulcers or lesions” value [2] was “none of the animals” and the “Asp (Aspirin) formed on storage” value ([3]; 50° C., 0 h) was “NIL”. The “Prodrug (area %) on storage” value ([3]; 50° C., 0 h) was 99.14%, the “SA (Salicylic acid) formed on storage” value ([3]; 50° C., 0 h) was “NIL” and the “Prodrug (area %) on storage” value ([3]; 50° C., 1 m) was 88.34%. For the same compound, the “SA (Salicylic acid) formed on storage” value ([3]; 50° C., 1 m) was 0.6%, the “Asp (Aspirin) formed on storage” value ([3]; 50° C., 2 d) was “NIL” and the “Prodrug (area %) on storage” value ([3]; 50° C., 2 d) was 98.84%. For the same compound, the “SA (Salicylic acid) formed on storage” value ([3]; 50° C., 2 d) was 0.1%, the “Asp (Aspirin) formed on storage” value ([3]; 50° C., 5 d) was 0.3% and the “Prodrug (area %) on storage” value ([3]; 50° C., 5 d) was 98.18%. The “SA (Salicylic acid) formed on storage” value ([3]; 50° C., 5 d) was 0.14%, the “Degradation of prodrug on storage” value ([3]; 50° C., after 1 month) was “about 11%” and the “Degradation of prodrug on storage” value ([3]; 50° C., after 5 days) was ~1%. The “Asp (Aspirin) formed on storage” value ([3]; RT, 0 h) was “NIL”, the “Prodrug (area %) on storage” value ([3]; RT, 0 h) was 99.14% and the “SA (Salicylic acid) formed on storage” value ([3]; RT, 0 h) was “NIL”. The “Asp (Aspirin) formed on storage” value ([3]; RT, 1 m) was 0.13%, the “Prodrug (area %) on storage” value ([3]; RT, 1 m) was 98.56% and the “SA (Salicylic acid) formed on storage” value ([3]; RT, 1 m) was “NIL”. The “Asp (Aspirin) formed on storage” value ([3]; RT, 3 d) was “NIL”, the “Prodrug (area %) on storage” value ([3]; RT, 3 d) was 98.89% and the “SA (Salicylic acid) formed on storage” value ([3]; RT, 3 d) was “NIL”. For the same compound, the “Asp (Aspirin) formed on storage” value ([3]; RT, 18 d) was “NIL”, the “Prodrug (area %) on storage” value ([3]; RT, 18 d) was 98.95% and the “SA (Salicylic acid) formed on storage” value ([3]; RT, 18 d) was “NIL”. The “Stability on storage (in words)” value ([3]; RT, up to 1 month) was “very stable”, the “Release of aspirin in SIF (in words)” value [4] was “released significant amount of aspirin” and the “Salicylic acid released in human plasma (in words)” value [5] was “large and proportional amount”. For the same compound, the “Release of parent drug on incubation in SGF (in words)” value [6] was “released quantitative amounts of the parent drug aspirin”, the “% of Aspirin Released (μM)” value ([6]; 0 min, 1 µM, pH 1.2) was 0% and the “AUC of aspirin (released / remaining) in SGF” value ([6]; 1 µM, pH 1.2) was 10406 µM·h. For the same compound, the “Aspirin released in SGF, less than that of aspirin” value ([6]; 1 µM, pH 1.2) was “about 15%”, the “% of Aspirin Released (μM)” value ([6]; 5 min, 1 µM, pH 1.2) was 18% and the “% of Aspirin Released (μM)” value ([6]; 10 min, 1 µM, pH 1.2) was 44%. The “% of Aspirin Released (μM)” value ([6]; 30 min, 1 µM, pH 1.2) was 97%, the “% of Aspirin Released (μM)” value ([6]; 60 min, 1 µM, pH 1.2) was 100% and the “% of Aspirin Released (μM)” value ([6]; 120 min, 1 µM, pH 1.2) was 100%. For the same compound, the “% of Prodrug remaining (μM)” value ([6]; 0 h, 1 µM, pH 1.2) was 91%, the “% of Prodrug remaining (μM)” value ([6]; 5 min, 1 µM, pH 1.2) was 82% and the “% of Prodrug remaining (μM)” value ([6]; 10 min, 1 µM, pH 1.2) was 56%. For the same compound, the “% of Prodrug remaining (μM)” value ([6]; 0.5 h, 1 µM, pH 1.2) was 3%, the “% of Prodrug remaining (μM)” value ([6]; 1 h, 1 µM, pH 1.2) was 0% and the “% of Prodrug remaining (μM)” value ([6]; 2 h, 1 µM, pH 1.2) was 0%.
